The source of these data is patent publication US11459337B2, “Isothiazolo[5,4-D]pyrimidine compound as IRAK4 inhibitor” (priority 2018, dated 2022).

SMILES strings stand for the structures. Like-named read-outs stand apart in the source and are kept apart here.

In one data set the target is human IRAK4 (Homo sapiens (Human), UniProt Q9NWZ3). Nature of the data set: 33P-labeled kinase activity assay (Reaction Biology Corp), in vitro enzymatic activity. The class given is biochemical. The note with it: 20 μM ATP, 3 nM kinase, MBP substrate. As to the method: The inhibitory activity of the test compounds against human IRAK4 was evaluated by measuring IC50 values in a ^33P-labeled kinase activity assay (Reaction Biology Corp). Buffer conditions: 20 mM Hepes (pH 7.5), 10 mM MgCl2, 1 mM EGTA, 0.02% Brij35, 0.02 mg/mL BSA, 0.1 mM Na3VO4, 2 mM DTT, 1% DMSO. Procedures: The test compound was dissolved in DMSO at room temperature to prepare a 10 mM solution for later use. The substrate was dissolved in fresh buffer, to which the kinase was added and mixed well. The DMSO solution containing the test compound was added to the above mixed reaction system by an acoustic technique (Echo 550). The concentrations of the compounds in reaction system were 10 μM, 3.33 μM, 1.11 μM, 0.370 μM, 0.123 μM, 41.2 nM, 13.7 nM, 4.57 nM, 1.52 nM, and 0.508 nM. After 15 minutes of incubation, the reaction was started by adding ^33P-ATP (activity: 0.01 μCi/μL; the corresponding concentration is listed in Table 1). Supplier's catalog number, lot number and concentration information in the reaction system for IRAK4 and its substrate are listed in Table 1. After 120 minutes of reaction at room temperature, the resulting solution was loaded on P81 ion exchange chromatography paper sheet (Whatman #3698-915). After repeated washing with 0.75% phosphoric acid solution, the radioactivity of the phosphorylated substrate residue on the paper sheet was measured. The kinase activity data are shown as a comparison of the kinase activity of the test compound and the kinase activity of the blank (DMSO only) and a curve was fitted using Prism4 software (GraphPad) to give IC50 values, with the experimental results shown in Table 2. [table]

The subject of the next data set is THP-1 cells. The data set can be described thus: TNF-α ELISA assay in LPS-stimulated THP-1 cells. It is filed as cell-based, human. The settings on record: Homo sapiens, THP-1, 18 h, TNF-α in supernatant, 150 ng/mL LPS. As to the method: TNF-α ELISA Assay in THP-1 Cells THP-1 human acute unicellular leukemia cells were purchased from ATCC (Cat #TIB-202) and incubated in a 37° C., 5% CO2 incubator. The medium was RPMI1640 (Gibco, Cat #22400-105), the supplementary was 10% FBS (Gibco, Cat #10091148); 1% PenStrep (Gibco, Cat #15140); 0.05 mM 2-mercaptoethanol (Sigma, Cat #M6250). TNF-α content in the culture supernatant was measured by a TNF-α Elisa kit. TNF-α was produced by stimulation of THP-1 cells with 150 ng/mL LPS (Sigma, Cat #L6529). Normal THP-1 cells in logarithmic phase were inoculated in 96-well plates (Corning #3599) at a certain concentration (1×10^5/100 μL) and then incubated in an incubator. After two hours, 16.7 μL of test compound of different concentrations (8×final concentration) was added and the mixture was incubated. After one hour, 16.7 μL of 1200 ng/mL LPS was added and the mixture was incubated. After 18 hours, the culture was centrifuged and the supernatant was collected. The TNF-α content was measured by a TNF-α Elisa kit. Finally, the OD signals (OD450-OD570) were read on an envision plate reader. The OD450-OD570 signals were converted to percent inhibition. Inhibition %=(ZPE−sample)/(ZPE−HPE)×100. “HPE” represents the OD450-OD570 signal value of the control without LPS-stimulated cells, and “ZPE” represents the OD450-OD570 signal value of the control with LPS-stimulated cells. IC50 values for compounds were calculated by XLFit in the Excel. Y=Bottom+(Top−Bottom)/(1+(IC50/X)^HillSlope). Equation: […]
On the technique in general: ELISA stands for enzyme-linked immunosorbent assay.

Data set [1] in a line: Pharmacokinetic study of oral and intravenous test compounds in SD rats. It is filed as in vivo. The settings on record: rat, plasma, SD male rats; for Vd: read-out: Apparent volume of distribution Vdss; for AUC(0-t): read-out: Area under plasma concentration-time curve AUC0-last; for clearance: read-out: Clearance CL; for half-life: read-out: Half life T1/2 (converted); for bioavailability: read-out: Bioavailability F; for Cmax: read-out: Peak concentration Cmax; for Tmax: read-out: Time to peak Tmax. As for the experimental part: Pharmacokinetic Study of Oral and Intravenous Test Compounds in SD Rats The test compound was mixed with a solution containing 10% of methyl pyrrolidone, 10% of polyethylene glycol stearate and 80% of water. The mixture was vortexed and sonicated to prepare a 1.5 mg/mL clarified solution, which was then filtered through a microporous membrane for later use. SD male rats aged 7 to 10 weeks were selected and administered intravenously with a dose of the candidate compound at 3 mg/kg. The test compound was mixed with 0.5% aqueous methylcellulose solution. The mixture was vortexed and sonicated to prepare a 2 mg/mL suspension for later use. SD male rats aged 7 to 10 weeks were selected and orally administered with a dose of the candidate compound at 10 mg/kg. Whole blood was collected at certain time points, and plasma was separated. The drug concentration was measured by LC-MS/MS, and pharmacokinetic parameters were calculated using Phoenix WinNonlin software (Pharsight, USA).

For data set [2], the system named is LPS-induced TNF-α secretion. The data set can be described thus: Pharmacodynamic study evaluating LPS-induced TNF-α secretion in SD rats. The settings on record: FIG. 2, oral, 20 mpk; for inhibitory effect on LPS-induced TNF-α secretion: LPS 1 mg/kg i.p. It is filed as in vivo. As for the experimental part: Pharmacodynamic Study Evaluating […] (LPS)-Induced TNF-α Secretion in SD Rats SD rats were orally administered with a solvent, dexamethasone (DEX, 0.5 mg/kg) as positive control, and the test compound, and were intraperitoneally injected with LPS (1 mg/kg) 0.5 hours after the administration Animals were euthanized with CO2 2 hours after LPS injection. Cardiac blood was collected into EDTA-K2 vacutainers, and a part of the anticoagulated blood was centrifuged and the plasma was frozen at −80° C. Frozen plasma was thawed at room temperature and the concentration of TNF-α in the plasma was measured using ELISA kit. The experimental data were expressed using mean±SEM, and TNF-α levels were analyzed by One-way ANOVA. Significant differences were considered for p<0.05.

Sequence of human IRAK4 (Q9NWZ3 whole entry): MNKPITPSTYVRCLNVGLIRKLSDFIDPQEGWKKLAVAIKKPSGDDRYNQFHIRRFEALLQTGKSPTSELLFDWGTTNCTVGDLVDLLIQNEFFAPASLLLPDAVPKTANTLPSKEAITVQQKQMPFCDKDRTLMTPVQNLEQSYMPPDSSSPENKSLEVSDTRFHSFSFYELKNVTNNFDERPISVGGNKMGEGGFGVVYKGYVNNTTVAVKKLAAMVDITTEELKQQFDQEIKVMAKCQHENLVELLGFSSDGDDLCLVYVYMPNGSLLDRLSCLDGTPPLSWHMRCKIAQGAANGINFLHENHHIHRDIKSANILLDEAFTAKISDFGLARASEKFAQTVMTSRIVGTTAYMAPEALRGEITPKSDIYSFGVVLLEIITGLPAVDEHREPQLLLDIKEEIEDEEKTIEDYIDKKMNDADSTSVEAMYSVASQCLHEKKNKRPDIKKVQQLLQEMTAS

As a reminder, the IC50 is the concentration that inhibits the measured activity by half. Low values mean greater potency, high ones weaker potency. A word on the bioavailability: it is dose-corrected exposure relative to a reference, in per cent. What is called Tmax is the time at which the peak concentration occurs. Compound `CC(C)c1nsc2nc(Nc3cnn(C4CCOCC4)c3)nc(N[C@H]3CC[C@H](N4CCOCC4)CC3)c12` [WX003] had an IC50 at human IRAK4 of 2.9 nM. Further, in the data set on THP-1 cells, it took 329 nM to reach half-maximal inhibition (IC50). For the same compound, in data set [1] (Intravenous, 3 mg/kg), the Vd stood at 4.8 L/kg, the AUC(0-t) is 1.33 µM·h, the clearance was found to be 71.4 mL/min/kg and the half-life was 1 h. In data set [1] (Oral, 10 mg/kg), the AUC(0-t) came to 2.01 µM·h, the bioavailability was 48%, the Cmax amounted to 523 nM and the time to peak (Tmax) was 0.8 h.

`Cc1nsc2nc(Nc3cnn(C4CCOC4)c3)nc(N[C@H]3CC[C@H](N4CCOCC4)CC3)c12` (some centres unmarked) [WX007] showed a 50% inhibitory concentration (IC50) on human IRAK4 of 5.7 nM. In addition, the half-maximal inhibitory concentration (IC50) with THP-1 cells was 417 nM. Moreover, in data set [1] (Intravenous, 3 mg/kg), the Vd came out at 3.3 L/kg, the AUC(0-t) was determined as 1.33 µM·h, the clearance was 79 mL/min/kg and the half-life was 0.9 h. In addition, in data set [1] (Oral, 10 mg/kg), the AUC(0-t) amounted to 1.64 µM·h, the bioavailability was determined as 38%, the Cmax worked out at 389 nM and the time to peak (Tmax) amounted to 2 h.

For the compound `Cc1nsc2nc(Nc3cnn(C4COC4)c3)nc(N[C@H]3CC[C@H](N4CCOCC4)CC3)c12` [WX009], at human IRAK4, the IC50 stood at 21.3 nM. The compound also registered a half-maximal inhibitory concentration (IC50) in the data set on THP-1 cells of 649 nM. Further, in data set [1] (Intravenous, 3 mg/kg), the Vd came out at 5.7 L/kg, the AUC(0-t) came out at 1.46 µM·h, the clearance was 73.3 mL/min/kg and the half-life was 1.8 h. Further, in data set [1] (Oral, 10 mg/kg), the AUC(0-t) amounted to 2.69 µM·h, the bioavailability was determined as 58%, the Cmax came out at 540 nM and the time to peak (Tmax) came out at 2.5 h.

For the compound `COC(=O)N1CCN([C@H]2CC[C@H](Nc3nc(Nc4cnn(C5CCOCC5)c4)nc4snc(C)c34)CC2)CC1` [WX026], on human IRAK4, inhibition was half-maximal at 2 nM (IC50). Further, the half-maximal inhibitory concentration (IC50) in the data set on THP-1 cells turned out to be 156 nM. Moreover, in data set [1] (Intravenous, 3 mg/kg), the Vd was 4.5 L/kg, the AUC(0-t) was found to be 1.77 µM·h, the clearance came to 50.6 mL/min/kg and the half-life was 2.2 h. Moreover, in data set [1] (Oral, 10 mg/kg), the AUC(0-t) turned out to be 1.36 µM·h, the bioavailability worked out at 23%, the Cmax was determined as 308 nM and the Tmax worked out at 1.5 h. Further, the “efficacy compared with dexamethasone DEX” value in data set [2] (DEX 0.5 mg/kg) is “equivalent”. Moreover, the “inhibitory effect on LPS-induced TNF-α secretion” value in data set [2] is given as “significant inhibitory effect”.

As to `COC(=O)N1C2CC1CN([C@H]1CC[C@H](Nc3nc(Nc4cnn(C5CCOCC5)c4)nc4snc(C)c34)CC1)C2` [WX044], at human IRAK4, half-maximal inhibition (IC50) required 40.7 nM. Also, the “inhibitory effect on LPS-induced TNF-α secretion” value in data set [2] is recorded as “significant inhibitory effect”.

Take `Cc1nsc2nc(Nc3cnn(C4CCOCC4)c3)nc(N[C@H]3CC[C@H](N4CCNC(C)C4)CC3)c12` (some centres unmarked) [WX049]: the values for the IC50 against human IRAK4 and with THP-1 cells were 11.2 nM and 516 nM, respectively.

For `Cc1nsc2nc(Nc3cnn(C4CCOCC4)c3)nc(N[C@H]3CC[C@H](N4CCNC5(CC5)C4)CC3)c12` [WX050], the IC50 on human IRAK4 was determined as 13.4 nM; in the data set with THP-1 cells it was 689 nM.

As to `N#CCc1nsc2nc(Nc3cnn(C4CCOCC4)c3)nc(N[C@H]3CC[C@H](N4CCOCC4)CC3)c12` [WX055], the half-maximal inhibitory concentration (IC50) was 11.7 nM against human IRAK4 and 165 nM with THP-1 cells.
